Results published in patent US9536718B2, “Detection of membrane protein-therapeutic agent complexes by mass spectrometry” (Oxford University Innovation Limited, priority 2011, dated 2017).

How the values were obtained:
P-gp = test: native mass spectrometry of P-gp with CsA, nucleotides and lipid (Example 2); format: binding; details: for number of nucleotides bound to P-gp: 1 mM MgCl2 plus 50 μM ATP or ATPγS, FIG. 2c
Procedure: His-tagged P-glycoprotein was expressed in P.pastoris and purified according to a protocol described previously (see Aller et al, supra). Lipids were purchased from Avanti Polar Lipids.
Before analysis, P-gp was buffer exchanged into 200 mM ammonium acetate pH 7 supplemented with 0.02% n-dodecyl-β-D-maltoside (DDM), using micro BioSpin-6 devices (Bio-Rad). Lipids were first prepared at 2 mM in chloroform and then diluted to 20 μM in 200 mM ammonium acetate pH 7 supplemented with 0.02% DDM. Cyclosporin was first dissolved at 8 mM in methanol and then diluted to 5-100 μM in 200 mM ammonium acetate pH 7 supplemented with 0.02% DDM. MS spectra were acquired on a Q-TOF2 (Micromass) modified for the transmission and detection of high mass complexes. Samples were introduced in the ion-source via gold-coated nanoflow capillaries. […] Micelle transmission was enhanced by increasing the Pirani pressure to 30 mbar. […] Spectra were analysed with Massign software.

mouse P-gp = test: nanoelectrospray MS / IM-MS of P-gp pre-incubated with drug compounds (Example 1); format: binding; details: 2-3 mg/ml P-gp pre-incubated with 1-10 molar equivalents of test compound; FIG. 1
Procedure: P-glycoprotein (P-gp) was expressed and purified as reported previously (Aller et al, Science, 2009, 323, 1718-1722). In this method, P-gp was expressed in P. pastoris strain and purified as a his-tagged protein from the membranes solubilised with Triton X-100. Buffer was exchanged by washing with buffer containing 20 mM imidazole, 0.04% sodium cholate and 0.0675% β-DDM. The protein was concentrated, subjected to gel filtration chromatography and assayed for purity by SDS-PAGE.
An aliquot (30 μl) of mouse P-gp solution (9 mg/ml) in 0.07% β-DDM, 0.04% sodium cholate, 100 mM NaCl, 0.2 mM TCEP, 20 mM Hepes, pH 7.5 was buffer-exchanged using a membrane filter and diluted 3-fold in 300 mM ammonium acetate, pH 7.5. Spectra of P-gp with drug compounds were obtained by first pre-incubating 2-3 mg/ml P-gp protein with 1-10 molar equivalents of the test compound for 15 minutes to overnight prior to nanoelectrospray ionisation mass spectrometry.
Mass spectrometry measurements were carried out on a Synapt HDMS (Waters, Manchester, UK) quadrupole-S2 ion-trap-IM-MS instrument modified for transmission and detection of ions at high m/z ratios. Aliquots of complex-containing solutions (2 μL) in detergent were introduced via gold-coated nanoflow electrospray capillaries. […]

Molecule | number of nucleotides bound to P-gp (P-gp) | further results
Nc1ncnc2c1ncn2[C@@H]1O[C@H](COP(=O)(O)OP(=O)(O)OP(=O)(O)O)[C@@H](O)[C@H]1O [ATP, adenosine triphosphate] | one or two | –
Nc1ncnc2c1ncn2[C@@H]1O[C@H](COP(=O)(O)OP(=O)(O)OP(O)(O)=S)[C@@H](O)[C@H]1O [ATPγS] | one or two | –
CC(C)[C@H]1NC(=O)c2c[se]c(n2)[C@@H](C(C)C)NC(=O)c2c[se]c(n2)[C@@H](C(C)C)NC(=O)c2c[se]c1n2 [QZ59Se, RRR] | – | effect of drug binding on the mass spectrum of P-gp (mouse P-gp): altered the mass spectrum of the membrane protein
cardiolipin 14:1(3)-15:1 | – | number of molecules bound to P-gp already bound to one ATP or ATPγS (P-gp; first incubated with ATP or ATPγS, then with cardiolipin or CsA, FIG. 3a, b): one or two
